Measurements: PubChem BioAssay (NCI)
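Assay format: 96-well plates, 48-hour exposure. GI50 = concentration required for 50% inhibition of growth. TGI is the concentration that stops growth completely.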

Experiments:
Test in all cases: NCI tumour cell line growth inhibition, 48 h
[1] = tested on: SNB-78 CNS
[2] = tested on: XF 498 CNS
[3] = tested on: LXFL 529 NSCLC
[4] = tested on: DLD-1 colon
[5] = tested on: RXF-631 renal
[6] = tested on: SN12K1 renal
[7] = tested on: P388 leukemia
[8] = tested on: P388/ADR leukemia

SMILES | TGI [1] [µM] | TGI [2] [µM] | TGI [3] [µM] | TGI [4] [µM] | TGI [5] [µM] | TGI [6] [µM] | TGI [7] [µM] | TGI [8] [µM] | GI50 [1] [µM] | GI50 [3] [µM] | GI50 [4] [µM]
CC(=O)NC1=C(NCCC(C)C)C(=O)c2ccccc2C1=O | > 50 | > 50 | > 50 | > 50 | – | – | – | – | – | – | –
C[n+]1c2ccccc2c(/C=N\NS(=O)(=O)c2ccc(O)c(C(=O)O)c2)c2ccccc21 | > 100 | 83.8 | – | > 100 | > 100 | – | – | – | – | – | –
CNC(=O)C(C)C1CCC2(C)C=CC(=O)C(C)=C2C1O (configuration not stated) | > 100 | > 100 | – | > 100 | – | > 100 | > 100 | > 100 | – | – | –
O=C1CCC23CC(C=CC=C12)n1c(=O)n(-c2ccccc2)c(=O)n13 (configuration not stated) | > 100 | > 100 | – | > 100 | – | > 100 | > 100 | > 100 | – | – | –
CC(=O)Nc1ccc(-c2nnc(SCC(=O)Nc3ccc([N+](=O)[O-])cc3)o2)cc1 | 34.3 | – | 20.4 | 26.4 | – | – | – | – | – | – | –
Cc1cccc2c(=O)cc(-c3ccccc3)[nH]c12 | – | > 100 | > 100 | > 100 | – | – | – | – | – | – | –
Cc1cc(=O)[nH]c(NN2C(Cl)C(=O)C2c2ccccc2O)n1 (configuration not stated) | > 100 | – | 54.5 | – | – | – | – | – | – | – | –
O=C1c2ccccc2C2C1N2C(=O)C(F)(F)F (configuration not stated) | – | > 100 | > 100 | > 100 | > 100 | – | – | – | – | – | –
Cc1c2cnccc2c(C)c2c1c1ccccc1n2CCCN | 2.23 | 1.4 | – | 0.847 | – | 0.831 | 0.212 | 0.707 | – | – | –
N.N.N.N.O=[N+]([O-])[O-].[Co+3].[N-]=[N+]=[N-].[N-]=[N+]=[N-] | > 100 | – | > 100 | > 100 | – | – | – | – | > 100 | > 100 | > 100
CC(C)CCCCCCCCCCCCC(=O)NCC(=O)NC1C(C)OC(Nc2ncnc3c2ncn3C)C(O)C1O (configuration not stated) | > 100 | > 62 | – | > 100 | – | > 100 | > 100 | > 100 | – | – | –
C[C@]12CC[C@H](O)CC1=CC[C@@H]1C2CC[C@]2(C)C(=O)N(N)C(=O)CC12 (some centres not stated) | > 100 | > 100 | > 100 | > 100 | > 100 | – | – | – | – | – | –
COc1cc([C@@H]2OCC3C(c4ccc5c(c4)OCO5)OCC32)cc(OC)c1OC (some centres not stated) | > 100 | > 100 | > 100 | > 100 | – | – | – | – | – | – | –
N#CN=C(N(Cc1ccccc1)Cc1ccccc1)N(Cc1ccccc1)Cc1ccccc1 | > 100 | 89.8 | > 100 | > 100 | – | – | – | – | – | – | –
CCC12C=CCN3CCC4(C(=C(C(=O)OC)[C@@H]1O)Nc1ccccc14)C32 (some centres not stated) | 7.35 | 3.05 | 3.13 | 3.36 | – | – | – | – | – | – | –
CNS(=O)(=O)NNS(=O)(=O)c1ccc2ccccc2c1 | > 100 | – | > 100 | > 100 | – | – | – | – | – | – | –
CCOC(=O)C1=C(C)NC(=S)NC1c1ccccc1 (configuration not stated) | > 100 | 99.7 | > 100 | > 100 | > 100 | – | – | – | – | – | –
[N-]=[N+]=Nc1cc(=O)oc2ccccc12 | – | – | > 100 | > 100 | – | – | – | – | – | – | –
